Results published in patent US20240140931A1, “TRICYCLIC COMPOUNDS AND USES THEREOF” (HUTCHMED LIMITED, priority 2021, published 2024).

How the values were obtained:
[1] = target: Human full-length SHP2 recombinant protein (Homo sapiens (Human), UniProt Q06124); experiment: Assay of full-length SHP2 phosphatase activity; type: biochemical; details: DiFMUP substrate, with activating peptide
Procedure: Example 2 Assay of Full-Length SHP2 Phosphatase Activity
1. Reagents and Materials • Human full-length SHP2 recombinant protein: BPS Bioscience, Cat #79018; • SHP2 substrate DiFMUP (1 mM): BPS Bioscience, Cat #79769; • SHP2 activating peptide (100 μM): BPS Bioscience, Cat #79319-2; • DTT: Merck, Cat #DTT-RO; • 384-well plate: Corning, Cat #3575; • 96-well plate: Thermo Fisher Scientific, Cat #249952; • Instrument: EnVision 2104, PerkinElmer.
2. Preparation of Reaction Solutions
The test compound was dissolved in DMSO and diluted with DMSO to 100.0 μM, and the compound was further 3-fold diluted with DMSO to: 100.00, 33.33, 11.11, 3.70, 1.23, 0.41, 0.14 and 0.05 μM.
3. Experimental Steps • To the corresponding wells of the 384-well plate was added 2.5 μL of 4× test compound or 2.5 μL of 4% DMSO solution, and centrifugation was carried out at 1000 rpm for 30 seconds. • To the test compound well and positive control well was added 2.5 μL of 4× mixed solution of SHP2 enzyme/activating peptide while to the negative control well was added 2.5 μL of 1× enzymatic reaction buffer; centrifugation was carried out at 1000 rpm for 30 seconds and incubation was carried out at room temperature for 30 minutes. • To each well was added 5 μL of 2×DiFMUP substrate to initiate the enzymatic reaction, then the plate was transiently oscillated and centrifuged at 1000 rpm for 30 seconds, and the 384-well plate was sealed with a sealing membrane and incubated at 25° C. on a low-speed shaker (100 rpm) in the dark for 60 minutes. • The fluorescence value (relative fluorescence units, RFU) of each well was detected on EnVision2104 (excitation: 355 nm, emission: 460 nm).
wherein • the RFU of compound well refers to the fluorescence reading at 460 nm of the well containing the test compounds; • the RFU of negative control well refers to the fluorescence reading at 460 nm of the background well containing 1% DMSO and the enzymatic reaction buffer; • the RFU of positive control well refers to the fluorescence reading at 460 nm of the well containing 1% DMSO and the mixed solution of SHP2 enzyme/activating peptide.
(§1) IC50 values were calculated following formula 205: y=A+((B−A)/(1+((C/X)^D))), by using the XL-Fit 5.0 software.

[2] = tested on: pERK1/2 (Thr202/Tyr204) in Miapaca2 cells; experiment: Assay of intracellular pERK1/2 (Thr202/Tyr204) phosphorylation; type: cell-based; details: pERK1/2 (Thr202/Tyr204) HTRF
Procedure: Example 3 Assay of Intracellular pERK1/2 (Thr202/Tyr204) Phosphorylation
1. Reagents and Materials • pERK1/2 (Thr202/Tyr204) HTRF kit: Cisbio, Cat #64ERKPEH; • Cell line: Miapaca2, ATCC, CRL-1420; • OptiPlate™-384-well plate: PerkinElmer, Cat #6007299; • 96-well plate: Corning, Cat #353072; • Instrument: EnVision2104, PerkinElmer.
2. Preparation of Reaction Solutions • The test compound was dissolved in DMSO and diluted with DMSO to 600.0 μM, and the compound was further 3-fold diluted with DMSO to: 600.0, 200.0, 66.7, 22.2, 7.4, 2.5, 0.82 and 0.27 μM. Then 10 μL of the compound at different dilution concentrations was added to 190 μL of a DMEM medium to prepare a 10× test compound, wherein DMSO was at the concentration of 5% (DMSO was at the final concentration of 0.5%). • 1× cell lysis buffer: 4× cell lysis stock solution (provided by the kit) was diluted 4-fold with deionized water, and then 1% 100× blocking stock solution (provided by the kit) was added thereto. • pERK1/2 detection solution (prepared just before use): the pERK1/2 d2 antibody (provided by the kit) and pERK1/2 Cryptate antibody (provided by the kit) were diluted with the detection solution (provided by the kit) at a ratio of 1:1:38.
3. Experimental Steps • Miapaca2 cells were inoculated into a 96-well plate at a density of 10000 cells/well at 90 μL/well and cultured in a cell incubator at 5% CO2 and 37° C. overnight. • 10 μL of 10× test compound was added to the 90 μL cell culture 96-well plate; to the cell positive control well was added 10 μL of 5% DMSO culture solution; and the plate was cultured in a cell incubator at 5% CO2 and 37° C. for 2 hours. • The medium in the 96-well plate was removed; 50 μL of 1× cell lysis buffer was added to each well; the plate was placed in a microplate shaker; and lysis under shaking was carried out at 900 rpm at room temperature for 1 hour. • 16 μL of the lysis buffer in the 96-well plate was taken and transferred to a 384-well plate, and centrifugation was carried out at 1000 rpm for 30 seconds; then 4 μL of pERK1/2 detection solution was added to each well and centrifugation was carried out at 1000 rpm for 30 seconds; and the 384-well plate was sealed with a sealing membrane and incubated at 25° C. on a low-speed shaker (100 rpm) in the dark for 2 hours. • The fluorescence value (relative fluorescence units, RFU) of each well was detected on EnVision2104 (emission 1: 665 nm, emission 2: 615 nm).
wherein • the fluorescence ratio of compound well refers to the fluorescence ratio of the well containing the test compounds; • the fluorescence ratio of negative control well refers to the fluorescence ratio of the background containing the cell lysis buffer and no Miapaca2 cells; • the fluorescence ratio of positive control well refers to the fluorescence ratio of the well containing 0.5% DMSO and Miapaca2 cells.
as §1

| Structure (SMILES) | IC50 [1] [nM] | IC50 ([2]; 2 hours) [nM] | IC50 ([2]; Homo sapiens, MIA PaCa-2, 2 h) [nM] |
| --- | --- | --- | --- |
| C#Cc1ccc2c(c1)[C@@H](N)C1(CCN(c3cc(=O)n(-c4cccc(OC)c4Cl)c(C)n3)CC1)C2 (atropisomer, axis not shown) [Compound 110] | 249 | 959 |  |
| C#Cc1ccc2c(c1)[C@@H](N)C1(CCN(c3cc(=O)n(-c4cccc(OC)c4Cl)c(C)n3)CC1)C2 (atropisomer, axis not shown) [Compound 111] | 2 | 15 |  |
| C#Cc1ccc2c(c1)[C@@H](N)C1(CCN(c3cc(=O)n(-c4ccc(F)c(F)c4Cl)c(C)n3)CC1)C2 (atropisomer, axis not shown) [Compound 113] | 2 | 14 |  |
| C#Cc1ccc2c(c1)[C@@H](N)C1(CCN(c3cc(=O)n(-c4ccc(F)c(F)c4Cl)c(C)n3)CC1)C2 (atropisomer, axis not shown) [Compound 114] | 53 | 284 |  |
| C#Cc1ccc2c(c1)[C@@H](N)C1(CCN(c3cc(=O)n(-c4cccc(C(F)(F)F)c4Cl)c(C)n3)CC1)C2 (atropisomer, axis not shown) [Compound 118] | 3 | 40 |  |
| C#Cc1ccc2c(c1)[C@@H](N)C1(CCN(c3cc(=O)n(-c4ccc(C#N)c(Cl)c4Cl)c(C)n3)CC1)C2 (atropisomer, axis not shown) [Compound 192] | > 1000 | > 1000 |  |
| C#Cc1ccc2c(c1)[C@@H](N)C1(CCN(c3cc(=O)n(-c4ccccc4Cl)c(C)n3)CC1)C2 (single isomer, unassigned) [Compound 56] | 2 | 85 |  |
| C#Cc1ccc2c(c1)[C@@H](N)C1(CCN(c3cc(=O)n(-c4ccccc4Cl)c(C)n3)CC1)C2 (single isomer, unassigned) [Compound 57] | 28 | 526 |  |
| C#Cc1ccc2c(c1)CC1(CCN(c3ncc(Sc4ccnc(N)c4Cl)c4nccn34)CC1)[C@@H]2N [Compound 1, (S)-1′-(8-((2-amino-3-chloropyridin-4-yl)thio)imidazo[1,2-c]pyrimidin-5-yl)-5-ethynyl-1,3-dihydrospiro[indene-2,4′-piperidin]-1-amine] | 2 |  | 18 |
| C#Cc1ccc2c(c1)CC1(CCN(c3cnc(Sc4ccnc(N)c4Cl)c(N)n3)CC1)[C@@H]2N [Compound 2] | 5 |  | 23 |
| C#Cc1ccc2c(c1)CC1(CCN(c3ncc(Sc4ccnc(NCCOC)c4Cl)c4nccn34)CC1)[C@@H]2N [Compound 3] | 9 |  | 81 |
| C#Cc1ccc2c(c1)CC1(CCN(c3nc(N)c(-c4cn(C)c5ncccc45)c(=O)n3C)CC1)[C@@H]2N [Compound 4, (S)-6-amino-2-(1-amino-5-ethynyl-1,3-dihydrospiro[indene-2,4′-piperidin]-1′-yl)-3-methyl-5-(1-methyl-1H-pyrrolo[2,3-b]pyridin-3-yl)pyrimidin-4(3H)-one] | 4 |  | 160 |
| C#Cc1ccc2c(c1)CC1(CCN(c3nc(N)c(Sc4ccnc(N)c4Cl)c(=O)n3C)CC1)[C@@H]2N [Compound 5] | 2 |  | 23 |
| C#Cc1ccc2c(c1)CC1(CCN(c3ncc(-c4cn(C)c5ncccc45)c4nccn34)CC1)[C@@H]2N [Compound 6] | 420 |  | > 3000 |
| C#Cc1ccc2c(c1)CC1(CCN(c3ncc(Sc4ccnc(NCCO)c4Cl)c4nccn34)CC1)[C@@H]2N [Compound 7] | 10 |  | 28 |
| C#Cc1ccc2c(c1)[C@@H](N)C1(CCN(c3ncc(Sc4ccnc(N)c4Cl)c4nccn34)CC1)C2 [Compound 8] | 3 |  | 8 |

More lines, now with the values ahead:

| IC50 [1] [nM] | IC50 ([2]; 2 hours) [nM] | IC50 ([2]; Homo sapiens, MIA PaCa-2, 2 h) [nM] | Structure (SMILES) |
| --- | --- | --- | --- |
| 178 | 698 |  | C#Cc1ccc2c(c1)[C@@H](N)C1(CCN(c3cc(=O)n(-c4cccc(C(F)(F)F)c4Cl)c(C)n3)CC1)C2 (atropisomer, axis not shown) [Compound 119] |
| 1.3 | 15 |  | COCC#Cc1ccc2c(c1)[C@@H](N)C1(CCN(c3cc(=O)n(-c4ccc(F)c(Cl)c4Cl)c(C)n3)CC1)C2 (atropisomer, axis not shown) [Compound 124] |
| 96 | 175 |  | COCC#Cc1ccc2c(c1)[C@@H](N)C1(CCN(c3cc(=O)n(-c4ccc(F)c(Cl)c4Cl)c(C)n3)CC1)C2 (atropisomer, axis not shown) [Compound 125] |
| 34 | 155 |  | C#Cc1ccc2c(c1)[C@@H](N)C1(CCN(c3cc(=O)n(-c4ccc(F)c(OC)c4Cl)c(C)n3)CC1)C2 (atropisomer, axis not shown) [Compound 162] |
| 42 | 154 |  | COCC#Cc1ccc2c(c1)[C@@H](N)C1(CCN(c3cc(=O)n(-c4ccc(F)c(OC)c4Cl)c(C)n3)CC1)C2 (atropisomer, axis not shown) [Compound 164] |
| 44 | 447 |  | CNC(=O)C#Cc1ccc2c(c1)[C@@H](N)C1(CCN(c3cc(=O)n(-c4cccc(OC)c4Cl)c(C)n3)CC1)C2 (atropisomer, axis not shown) [Compound 181] |
| 253 | 672 |  | C#Cc1ccc2c(c1)[C@@H](N)C1(CCN(c3cc(=O)n(-c4ccc(C#N)c(OC)c4Cl)c(C)n3)CC1)C2 (atropisomer, axis not shown) [Compound 190] |
| 25 | 512 |  | CNC(=O)C#Cc1ccc2c(c1)[C@@H](N)C1(CCN(c3cc(=O)n(-c4ccc(F)c(OC)c4Cl)c(C)n3)CC1)C2 (atropisomer, axis not shown) [Compound 200] |
| 58 | 187 |  | CC#Cc1ccc2c(c1)[C@@H](N)C1(CCN(c3cc(=O)n(-c4ccc(F)c(OC)c4Cl)c(C)n3)CC1)C2 (atropisomer, axis not shown) [Compound 208] |
| 52 | 527 |  | CNC(=O)C#Cc1ccc2c(c1)[C@@H](N)C1(CCN(c3cc(=O)n(-c4ccc(F)c(F)c4Cl)c(C)n3)CC1)C2 (atropisomer, axis not shown) [Compound 210] |
| 104 | 944 |  | CC#Cc1ccc2c(c1)[C@@H](N)C1(CCN(c3cc(=O)n(-c4ccc(F)c(F)c4Cl)c(C)n3)CC1)C2 (atropisomer, axis not shown) [Compound 218] |
| 317 | > 1000 |  | CC#Cc1ccc2c(c1)[C@@H](N)C1(CCN(c3cc(=O)n(-c4ccc(F)c(Cl)c4Cl)c(C)n3)CC1)C2 (atropisomer, axis not shown) [Compound 220] |
